Results on two molecules are retold here after EP0075895A2, “Pharmaceutical amides, and preparation, formulations and use thereof” (THE WELLCOME FOUNDATION LIMITED, priority 1981, dated 1983).

Structures can show the parent of a compound that is named as a salt.

This test deals with T1, enkephalinase Al (Rattus norvegicus, UniProt P07861).
T1 construct: the solubilised enzymes contained in the supernatent separated by DEAE-cellulose column chromatograph; from tissue; host or cells: rat striatum (washed membrane pellet, solubilised with Triton X-100, then DEAE-cellulose and Sephacryl S.300 chromatography)
T1 sequence (P07861 1-750): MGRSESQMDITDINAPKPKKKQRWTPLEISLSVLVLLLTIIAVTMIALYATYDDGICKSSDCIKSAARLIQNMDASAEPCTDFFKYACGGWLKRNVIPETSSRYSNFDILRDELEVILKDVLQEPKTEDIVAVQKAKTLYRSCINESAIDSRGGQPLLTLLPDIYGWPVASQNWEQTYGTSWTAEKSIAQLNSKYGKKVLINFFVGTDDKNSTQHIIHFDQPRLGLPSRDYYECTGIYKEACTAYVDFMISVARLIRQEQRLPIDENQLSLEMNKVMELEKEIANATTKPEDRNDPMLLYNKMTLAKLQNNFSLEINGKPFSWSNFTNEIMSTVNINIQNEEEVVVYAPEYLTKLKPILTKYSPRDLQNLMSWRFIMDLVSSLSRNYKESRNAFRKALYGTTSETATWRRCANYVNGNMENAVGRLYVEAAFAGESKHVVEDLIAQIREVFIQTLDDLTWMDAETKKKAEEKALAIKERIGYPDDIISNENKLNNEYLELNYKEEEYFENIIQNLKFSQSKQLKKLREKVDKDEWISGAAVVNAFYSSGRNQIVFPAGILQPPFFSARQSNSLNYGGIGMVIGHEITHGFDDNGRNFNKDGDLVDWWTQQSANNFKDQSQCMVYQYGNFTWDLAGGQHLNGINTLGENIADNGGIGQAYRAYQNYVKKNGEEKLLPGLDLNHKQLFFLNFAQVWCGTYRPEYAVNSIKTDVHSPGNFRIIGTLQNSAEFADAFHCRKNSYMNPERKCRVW
Put plainly: enkephalinase-inhibiting activity (3H-TGG generation from 3H-leucine enkephalin, TLC separation, scintillation counting). The test is classed as biochemical, Rats. The conditions noted are these: approximate IC50 determined graphically; concentration required for 50% inhibition of 3H-TGG generation; leucine enkephalin 5 x 10^-5M, 30°C. An excerpt: Rats were killed by decapitation and the striata dissected out on ice. […] The resulting supernatent was discarded and the remaining pellet washed three times.
Enkephalinase-inhibiting activity was estimated by the following procedure.

The molecule `O=C(O)CNC(=O)[C@H](Cc1ccccc1)NP(=O)(O)O` [compound 2, N-Phosphoryl-L-phenylalanyl-glycine trisodium salt] showed an IC50 of 15 nM.

“N-(Phosphoryl-phenylalanyl)leucine [compound 1]” yielded an IC50 of 7 nM.
